Data reported in ChEMBL document CHEMBL1201862, “PubChem BioAssay data set” (2004).
Activity calls are given as the source filed them. No stated cut-off is given here; in the data, actives have a measured IC50 and inactives only a lower limit.

Target: Envelope glycoprotein gp160 (Human immunodeficiency virus 1, UniProt Q6QLK5)
Assay: cell-free HIV fusion peptide-binding blockers – biochemical, uHTS, fluorescence dequenching, […] (AID 1986)

Sequence of Envelope glycoprotein gp160 (Q6QLK5 whole entry, the tested form may be a part): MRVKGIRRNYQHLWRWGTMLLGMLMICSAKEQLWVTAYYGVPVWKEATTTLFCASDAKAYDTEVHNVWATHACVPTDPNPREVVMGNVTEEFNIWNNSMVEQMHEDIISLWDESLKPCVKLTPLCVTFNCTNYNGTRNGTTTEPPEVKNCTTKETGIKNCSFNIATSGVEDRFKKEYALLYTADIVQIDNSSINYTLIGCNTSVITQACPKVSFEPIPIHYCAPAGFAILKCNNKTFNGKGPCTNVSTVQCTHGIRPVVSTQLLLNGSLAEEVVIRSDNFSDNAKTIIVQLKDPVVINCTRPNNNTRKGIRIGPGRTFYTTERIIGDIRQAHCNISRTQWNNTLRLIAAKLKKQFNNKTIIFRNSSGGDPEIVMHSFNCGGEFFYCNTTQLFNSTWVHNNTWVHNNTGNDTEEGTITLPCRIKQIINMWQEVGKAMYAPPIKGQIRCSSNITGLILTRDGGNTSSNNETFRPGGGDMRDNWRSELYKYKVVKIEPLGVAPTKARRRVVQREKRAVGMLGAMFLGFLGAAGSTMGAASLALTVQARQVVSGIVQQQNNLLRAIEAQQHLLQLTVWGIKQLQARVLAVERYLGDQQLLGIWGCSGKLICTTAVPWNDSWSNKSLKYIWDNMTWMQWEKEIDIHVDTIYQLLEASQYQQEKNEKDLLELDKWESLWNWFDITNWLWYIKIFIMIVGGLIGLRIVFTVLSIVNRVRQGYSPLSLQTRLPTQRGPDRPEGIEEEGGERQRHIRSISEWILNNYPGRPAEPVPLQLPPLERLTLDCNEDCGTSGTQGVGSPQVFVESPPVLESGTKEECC

**Q.** For Oc1c(Br)cc(Br)c(/C=N/n2c(S)nnc2-c2ccccc2)c1Br, which IC50 is on record?
**A.** 12 µM (active)
